This is an account of results in PubChem BioAssay (NCI).

Experiment in all cases: NCI-60 cell line screen, 48 h
Assay [1] concerns SK-MEL-2 melanoma.
The subject of assay [2] is PC-3 prostate.
Assay [3] has as its system BT-549 breast.
Assay [4] deals with HS 578T breast.
Assay [5] relates to SF-268 CNS.
For assay [6], the system named is KM12 colon.
In assay [7] the test system is K-562 leukemia.
The subject of assay [8] is UACC-257 melanoma.
The subject of assay [9] is HT29 colon.
Assay [10] relates to OVCAR-5 ovarian.
Assay [11] relates to SF-295 CNS.
Assay [12] concerns SN12C renal.
Assay [13] has as its system TK-10 renal.
In assay [14] the test system is SF-539 CNS.
In assay [15] the test system is HOP-92 NSCLC.
Assay [16] has as its system SK-MEL-28 melanoma.
Assay [17] has as its system UACC-62 melanoma.
Assay [18] deals with SK-OV-3 ovarian.
For assay [19], the system named is ACHN renal.
In assay [20] the test system is 786-0 renal.

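Tested at 5 concentrations; 48 h exposure; 96-well plates; endpoints linearly interpolated, else capped at highest concentration. TGI marks complete inhibition of growth.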 Some results are limits rather than exact numbers.

As for `COc1ccc2c(-c3ccc(O)cc3)c(Oc3ccc(Cl)cc3)c(=O)oc2c1`, the TGI in assay [1] came out at 11.2 µM; in assay [2], 24.4 µM; in assay [3], 23.3 µM; in assay [4], 16.8 µM; in assay [5], 24.6 µM; in assay [6], 22.6 µM. Besides, the TGI in assay [7] was more than 57.8 µM; in [8], 41 µM; in assay [9], more than 38.1 µM; in [10], 21.4 µM; in assay [11], 23 µM; in assay [12], 19.2 µM. Besides, the TGI in [13] is more than 22.7 µM; in assay [14] it was 28.8 µM; in [15], 23.7 µM; in assay [16], 23.1 µM; in assay [17], 18.6 µM; in assay [18], 44.9 µM. Also, the TGI is more than 37.7 µM in [19] and more than 35.1 µM in assay [20].

As for `COC(=O)c1cc(C)n(CN(Cc2ccccc2)Cn2nc(C(=O)OC)cc2C)n1`, the TGI in assay [1], in [2], in assay [3], in assay [4], in assay [5] and in assay [6] was more than 100 µM throughout. Also, the TGI in assay [7], in assay [8], in [9], in assay [10], in assay [11] and in assay [12] was more than 100 µM each time. Moreover, the TGI in assay [13] is more than 100 µM; in [14], more than 68.7 µM; in assay [15], more than 100 µM; in assay [16] it was more than 100 µM; in assay [17], more than 100 µM; in assay [18], more than 100 µM. Also, the TGI is more than 65.6 µM in assay [19] and more than 100 µM in assay [20].

For the compound `CC(=O)Oc1c(C)c2c(c3ccccc13)OC(C)(C)C2`, the TGI in assay [1] was 34 µM; in [2], 47.2 µM; in [3], 39.4 µM; in assay [4], 53.9 µM; in [5], 28.8 µM; in assay [6] it was 27.6 µM. In addition, the TGI in [7] was more than 100 µM; in [8] it was 24.6 µM; in assay [9], 35 µM; in assay [10], 34.4 µM; in assay [11], 30.9 µM; in [12], 34.5 µM. Also, the TGI in assay [13] turned out to be 32.9 µM; in assay [14] it was 37.3 µM; in assay [15], 31.9 µM; in [16], 32.9 µM; in assay [17], 30.3 µM; in [18], 66.3 µM. In addition, the TGI in assay [19] amounted to 31 µM; in assay [20] it was 34.3 µM.
